Data reported in ChEMBL document CHEMBL3507680, “University of Dundee, Gates Library screen for HepG2 cell viability”.

assay: Human HepG2 cell viability assay in 384 well format; format: toxicity, cell-based; set-up: dose 125 nL, time 70.5 hour; cytotoxicity at 70.5 h: concentration not given beside the values; settings: HepG2 cells, read-out: Inhibition

SMILES | cytotoxicity at 70.5 h
COC(=O)CC1CSCCN1C(=O)CCc1c(C)nn(C)c1C (configuration not stated) | -7.68%
CCN(C(=O)CN1CCN(CC(C)O)CC1)C1=CCCCC1 (configuration not stated) | -3.37%
COc1ncccc1C(=O)N(C)Cc1nc(-c2ccccn2)no1 | -8.07%
CCN(Cc1ccncc1)S(C)(=O)=O | 27.1%
CCc1ccc(OCC(O)CN2CCN(S(C)(=O)=O)CC2)cc1 (configuration not stated) | -5.82%
CC(O)CN1CCN(C(=O)c2cc3ccccc3c(=O)[nH]2)CC1 (configuration not stated) | -1.26%
c1ccc(OCCN2CCC(c3cnccn3)CC2)cc1 | 3.59%
Cc1cccc2sc(NC(=O)CN3CCC(C)CC3)nc12 | -7.07%
Cn1cnc(S(=O)(=O)N2CCOCC2)c1Cl | -3.62%
CCOc1ncccc1NC(=O)N1CCCN(C(=O)OC)CC1 | -0.675%
COC(C)(C)C(=O)N[C@H]1CN(c2nccnc2N(C)C)C[C@@H]1C(C)C | -5.98%
Cc1cc(=O)[nH]c(SC(C)C(=O)N2CCC(c3ncc[nH]3)CC2)n1 (configuration not stated) | 0.989%
COc1ccc(-c2ncccc2C(=O)N2C[C@H]3CC[C@@H]2C3)cn1 | -2.51%
O=C(NCc1cccnc1)c1cn(CCc2ccccc2)nn1 | 14%
CCc1nnc(C(C)N2CCN(CCC(C)(C)C)CC2)o1 (configuration not stated) | -7.09%
COc1cc(OC)cc(-c2cc(N)on2)c1 | -7.45%
CN(Cc1ccccc1O)C(=O)NC1CCCN(c2ncccn2)C1 (configuration not stated) | 22.3%
COCc1noc(-c2ccc(N(C)Cc3c(C)n[nH]c3C)nc2)n1 | -5.36%
Cc1cc(C)n(CC2CCCN2C(=O)c2c[nH]c3ncccc23)n1 (configuration not stated) | 27.2%
COc1cccc(CN2C[C@@H]3COC[C@]3(COCc3ccccn3)C2)c1 | 2.25%
COc1cccc(Cn2cccc(C#N)c2=O)c1 | -7%

SMILES | cytotoxicity at 70.5 h
CNS(=O)(=O)c1ccc(CNC(=O)NCC2CCC2)cc1 | -8.5%
COc1ccc(C(=O)N2CCCC(n3cc(C)cn3)C2)c(F)c1 (configuration not stated) | -3.25%
CCn1ccc2cc(NC(=O)CC3CCCO3)ccc21 (configuration not stated) | -6.31%
CCOc1cc(CNc2cc(-c3nc(C)no3)ccn2)ccc1OC | 1.28%
O=C(C1CCOCC1)N1CCC2(CC1)CN(c1ccsc1)C(=O)CO2 | -6.23%
CC(C)Cc1noc(CNc2ccccc2CC(=O)N(C)C)n1 | -3.15%
Cc1cccc(CNC(=O)CNc2cc(CO)ccc2Cl)c1 | -3.8%
O=C(c1ccc(-c2ccoc2)nc1)N1CCCN(C2CCCCC2)CC1 | -12.9%
CCSc1ncc(CN2CCN(c3ccc(C#N)cc3)C(=O)C2)cn1 | -8.4%
CSc1ncc(C(=O)N2C[C@H]3CC[C@@H]2CN(c2ncccn2)C3)cn1 | 24.3%
COCCN1C[C@@H]2CN(c3ncccn3)C[C@@H]2C1=O | -7.68%
CCOc1ccc(CN2C(=O)CC(C)(C(C)C)C2=O)nc1 (configuration not stated) | 0.245%
CC(C(N)=O)N(C)CCCc1cc(-c2ccccc2)no1 (configuration not stated) | -2.88%
O=C1N(c2cccc(F)c2)Cc2nc(=O)[nH]n21 | -7.69%
CCn1cc(CN(C)S(=O)(=O)c2ccc(NC(C)=O)cc2)cn1 | 26.5%
CCCN(C)C(=O)Nc1ccc(C(=O)NCCC(=O)OC)cc1 | -6.01%
Cc1ccc(N2CCC3(CC2)CC(OCC(C)C)C3)nn1 | -8.68%
OC1(CNCCc2nc3c(s2)CCCC3)CCNC1 (configuration not stated) | -2.83%
O=C(c1cc(COc2ccc3c(c2)OCO3)[nH]n1)N1CCCC(O)C1 (configuration not stated) | 0.249%
CS(=O)(=O)N1CCCC12CCN(Cc1nccs1)CC2 | -3.49%
O=C(c1ccco1)N1CCCC2(CN(Cc3ccsc3)CCO2)C1 (configuration not stated) | -5.26%

SMILES | cytotoxicity at 70.5 h
O=C(Cn1cnnn1)NCC1(O)CCCc2ccccc21 (configuration not stated) | -6.92%
Cc1ccc(CN2CCN(C3CCC3)CC2CCO)o1 (configuration not stated) | -10.1%
Cc1nc[nH]c1CN1CCC(C2CCN(CCc3ccccc3)C2)CC1 (configuration not stated) | -1.67%
Cc1cnc(C(=O)N2C[C@@H]3[C@@H](C2)OCC(=O)N3CC2CCCC2)cn1 | 15.5%
Cc1ccc(CN2CCC3(CC2)OC(C(=O)N(C)C)c2ccccc23)o1 (configuration not stated) | -13.3%
NC(=O)CSc1ccccc1NC(=O)C1CCCC1 | -5.87%
Cn1c(-c2ccccc2Cl)nc2cc(C(=O)NC(CO)CO)cnc21 | -8.01%
Cc1cc2ccccc2n1CCC(=O)N1CCCC(O)(CN(C)C)CC1 (configuration not stated) | -0.891%
Cc1cc(C)c(CNC(=O)N2CCOC(c3ccccc3)C2)c(=O)[nH]1 (configuration not stated) | -8.25%
COc1ccc(C(=O)Nc2ccc3c(c2)C(=O)NC3)cc1Br | -5.4%
CC1CCN(S(=O)(=O)NCCCn2cncn2)CC1 | -0.69%
CCSCCC(C)N(C)C(=O)c1cc(C)on1 (configuration not stated) | -3.26%
CC(C)CCNC(=O)CNC(=O)N1CCc2c([nH]c3ccc(Cl)cc23)C1 | -19.7%
COCCC1COC2(CCN(C(=O)C3CCCC3)CC2)C1 (configuration not stated) | -6.45%
CS(=O)(=O)CCn1ccc(NC(=O)CCc2cccc(F)c2)n1 | -3.41%
CC(C)c1cc(NCC(O)CO)n2nccc2n1 (configuration not stated) | -0.638%
CC(=O)N(Cc1noc(C)n1)C1CCN(Cc2cc(C)on2)C1 (configuration not stated) | -2.83%
Cc1nc(C)c(C(C)NCc2c(C)nn(C)c2N(C)C)s1 (configuration not stated) | -6.29%
Cc1nc(C)n(CC2CCCN2Cc2nc(-c3cccs3)no2)n1 (configuration not stated) | -12.2%
CCN(CC)C1COc2ccc(Br)cc2C1=O (configuration not stated) | -5.6%
CCC[C@@H]1CN(C(=O)c2ccccc2-c2ccccc2)C[C@H]1N(C)C | 0.165%

SMILES | cytotoxicity at 70.5 h
O=C1NC2(CCN(C(=O)Cc3ccsc3)CC2)CC1c1ccncc1 (configuration not stated) | -4.21%
COCCn1cc2c(n1)C(CNCc1ccc(F)cc1)OCC2 (configuration not stated) | 0.574%
Cc1cnc(CNC(=O)NCCOc2ncccc2Cl)s1 | -3.34%
CC(C)n1cnnc1Cn1c(=O)ccc2ccccc21 | -2.43%
CC(C)(C)OC(=O)NCC1CCN(C(=O)c2cc(Cl)c[nH]2)CC1 | -14.2%
Cc1ccc(NCCCNC(=O)NCc2c(C)cc(C)[nH]c2=O)nc1 | -10.4%
O=S(=O)(NCC1CCN(c2cnccn2)CC1)c1cccs1 | 5.13%
Cn1c(=O)n(C)c2nc(Cl)c(CC(=O)c3ccc(F)cc3)n2c1=O | 0.873%
Cc1cc(CNC2(c3ccccc3)CCCCC2)no1 | -4.77%
CCc1nnc2n1CCN(C(C(=O)NC1CC1)c1ccccc1)C2 (configuration not stated) | -7.08%
Cc1ccc(N2C[C@H]3OCC[C@H]3[C@H](C(=O)NCc3ccco3)C2)nn1 | -7.31%
COc1ccc(C[C@H]2CN(C(=O)CS(C)(=O)=O)CC[C@H]2OC)cc1 | -4.64%
CN1CCN(Cc2cccnc2)C2(CCN(Cc3ccoc3)C2)C1=O (configuration not stated) | 20.4%
CCn1c(CN(C)C(C)CSC)nc2c(F)cccc21 (configuration not stated) | -3.45%
NC1CCCCN(Cc2ccccc2CS(=O)(=O)c2ccccc2)C1 (configuration not stated) | -8.29%
Cc1cnc(CN2CCCC2c2cnn(C)c2)cn1 (configuration not stated) | -10.3%
COc1ccccc1-c1cccc(C2CCCN(C3CCOCC3)C2)n1 (configuration not stated) | 22.7%
CC(C)(C)n1nc(C2CC2)cc1C(=O)NCC1(C(N)=O)CCOCC1 | 22.2%
COc1ccc(CC(=O)N2CC[C@@H](OC)[C@@H]2Cc2cccnc2)cc1 | -4.94%
